Where two headings read alike, the source gives them in different places.
How the values were obtained:
[1] = target: T1, α1B Human Adrenergic Receptor (Homo sapiens, UniProt P35368); assay: Equilibrium competition binding, [3H] prazosin, membranes of transfected LM(tk-) cells
T1 construct: The entire coding region of α1B(1563 bp); expressed in transfected cells; host or cells: LM(tk-) cells
T1 sequence (P35368 1-520): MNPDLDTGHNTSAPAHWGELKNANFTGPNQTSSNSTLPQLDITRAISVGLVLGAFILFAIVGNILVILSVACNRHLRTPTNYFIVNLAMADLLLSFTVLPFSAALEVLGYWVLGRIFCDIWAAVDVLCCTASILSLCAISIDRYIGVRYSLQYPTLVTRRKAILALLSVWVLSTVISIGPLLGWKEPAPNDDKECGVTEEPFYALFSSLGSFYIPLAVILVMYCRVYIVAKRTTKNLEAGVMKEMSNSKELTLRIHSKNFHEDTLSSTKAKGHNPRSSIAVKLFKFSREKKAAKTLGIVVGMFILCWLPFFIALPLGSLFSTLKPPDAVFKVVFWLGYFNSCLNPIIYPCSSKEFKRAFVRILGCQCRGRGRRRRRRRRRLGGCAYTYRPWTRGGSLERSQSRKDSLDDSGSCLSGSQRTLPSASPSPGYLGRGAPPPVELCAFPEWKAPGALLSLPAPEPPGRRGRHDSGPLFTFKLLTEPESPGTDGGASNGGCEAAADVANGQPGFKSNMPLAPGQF

[2] = test system: Adult rhesus monkeys (Macaca mulatta); assay: Sedation and muscle relaxation rating; type: in vivo; conditions: subcutaneous, cumulative dosing 0.1-3.2 mg/kg, versus clonidine 0.032-1.0 mg/kg
Description: Subjects. Adult rhesus monkeys (Macaca mulatta) of either sex were housed individually with free access to water. They were fed fresh fruit weekly and approximately 40 biscuits (Purina Monkey Chow) daily.
Procedure. Monkeys were trained to receive subcutaneous injections while in their home cages; they were rated by one non-blind observer familiar with the individual subjects, according to modified rating scales for sedation and muscle relaxation (Table 2); Separate scales describe increasing degrees of sedation (as measured by responsiveness to stimuli) and muscle relaxation (as observed through changes in posture). Animals were injected in a cumulative dosing procedure with a 30 minute interinjection interval; observer rating on both scales took place approximately 15 minutes after each injection.
Design. […] The same three monkeys were typically studied under each se of conditions.

[3] = target: α2C Human Adrenergic Receptor (Homo sapiens, UniProt P18825); assay: Equilibrium competition binding, [3H] rauwolscine, membranes of transfected LM(tk-) cells
Sequence of α2C Human Adrenergic Receptor (P18825 whole entry, looked up): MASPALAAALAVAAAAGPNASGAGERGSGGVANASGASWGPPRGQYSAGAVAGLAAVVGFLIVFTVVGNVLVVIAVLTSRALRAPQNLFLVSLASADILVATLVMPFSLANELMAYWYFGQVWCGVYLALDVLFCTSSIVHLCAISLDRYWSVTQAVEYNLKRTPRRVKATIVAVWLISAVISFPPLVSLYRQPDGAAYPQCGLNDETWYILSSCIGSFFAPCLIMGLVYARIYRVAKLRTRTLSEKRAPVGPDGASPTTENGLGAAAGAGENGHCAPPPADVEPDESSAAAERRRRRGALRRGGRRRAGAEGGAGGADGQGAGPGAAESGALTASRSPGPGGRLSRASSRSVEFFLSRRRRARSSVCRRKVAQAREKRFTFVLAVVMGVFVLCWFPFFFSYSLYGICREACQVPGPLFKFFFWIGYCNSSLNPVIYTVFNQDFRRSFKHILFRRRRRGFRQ

[4] = cloned human receptor, [3H] prazosin, read-out: pKi Alpha-1 B (converted)

Structure (SMILES): c1nc2ccc(NC3=NCCN3)cc2[nH]1 [Example 1, 5-(2-Imidazolin-2-ylamino)Benzimidazole]
- Ki [1, 4]: 24.5 µM

Structure (SMILES): Brc1c(NC2=NCCN2)ccc2nc[nH]c12 [Example 2, 4-Bromo-5-(2-imidazolin-2-ylamino)Benzimidazole]
- Ki [1]: 5.89 µM

Structure (SMILES): Clc1c(NC2=NCCN2)ccc2nc[nH]c12 [Example 3, 4-Chloro-5-(2-imidazolin-2-ylamino)Benzimidazole]
- Ki [1, 4]: 8.13 µM

Structure (SMILES): Cc1c(N=C2NCCN2)ccc2[nH]cnc12 [Example 4, 4-Methyl-5-(2-imidazolin-2-ylamino)Benzimidazole]
- sedation [2]: decreased sedation relative to the reference compound, clonidine
- Ki [1, 4]: 2.75 µM

Structure (SMILES): Ic1c(NC2=NCCN2)ccc2nc[nH]c12 [Example 5, 4-Iodo-5-(2-imidazolin-2-ylamino)Benzimidazole]
- Ki [1, 4]: 1.82 µM

Structure (SMILES): CCCc1c(NC2=NCCN2)ccc2nc[nH]c12 [Example 7, 4-n-Propyl-5-(2-imidazolin-2-ylamino)Benzimidazole]
- Ki [1, 4]: 1.23 µM

Structure (SMILES): CCCCc1c(NC2=NCCN2)ccc2nc[nH]c12 [Example 8, 4-n-Butyl-5-(2-imidazolin-2-ylamino)Benzimidazole]
- Ki [1, 4]: 2.63 µM

Structure (SMILES): Cn1cnc2cc(NC3=NCCN3)ccc21 [Example 9, 1-Methyl-5-(2-imidazolin-2-ylamino)Benzimidazole]
- Ki [1, 4]: 13.5 µM

Structure (SMILES): Cn1cnc2c(Br)c(NC3=NCCN3)ccc21 [Example 10, 1-Methyl-4-bromo-5-(2-imidazolin-2-ylamino)Benzimidazole]
- melting point: 237 to 238 °C
- Ki [1, 4]: 3.8 µM

Structure (SMILES): Cn1cnc2ccc(NC3=NCCN3)c(Br)c21 [Example 12, 3-Methyl-4-bromo-5-(imidazolin-2-ylamino)Benzimidazole]
- pKi Alpha-1 B ([1]; cloned human receptor, [3H] prazosin): 6.46

Structure (SMILES): COc1ccc(Cn2cnc3c(Br)c(NC4=NCCN4)ccc32)cc1 [Example 36, 1-(4-Methoxybenzyl)-4-bromo-5-(2-imidazolin-2-ylamino)Benzimidazole]
- Ki [1]: 11 µM

Structure (SMILES): OCCn1cnc2c(Br)c(NC3=NCCN3)ccc21 [Example 38, 1-(2-Hydroxyethyl)-4-bromo-5-(2-imidazolin-2-ylamino)Benzimidazole]
- Ki [1]: 17.4 µM

Structure (SMILES): Cc1nc2ccc(NC3=NCCN3)c(Br)c2[nH]1 [Example 42, 2-Methyl-4-bromo-5-(2-imidazolin-2-ylamino)Benzimidazole]
- Ki [1, 4]: 8.51 µM

Structure (SMILES): CCc1nc2ccc(NC3=NCCN3)c(Br)c2[nH]1 [Example 43, 2-Ethyl-4-bromo-5-(2-imidazolin-2-ylamino)Benzimidazole]
- Ki [1, 4]: 6.92 µM

Structure (SMILES): CC(C)c1nc2ccc(NC3=NCCN3)c(Br)c2[nH]1 [Example 44, 2-Isopropyl-4-bromo-5-(2-imidazolin-2-ylamino)Benzimidazole]
- Ki [1, 4]: 5.89 µM

Structure (SMILES): CC(C)(C)c1nc2ccc(NC3=NCCN3)c(Br)c2[nH]1 [Example 45, 2-tert-Butyl-4-bromo-5-(2-imidazolin-2-ylamino)Benzimidazole]
- Ki [1, 4]: 11.5 µM

Structure (SMILES): FC(F)(F)c1nc2ccc(NC3=NCCN3)c(Br)c2[nH]1 [Example 46, 2-Trifluoromethyl-4-bromo-5-(2-imidazolin-2-ylamino)Benzimidazole]
- Ki [1, 4]: 28.2 µM
- Ki [3]: 1.48 µM

Structure (SMILES): Brc1c(NC2=NCCN2)ccc2nc(C(c3ccccc3)c3ccccc3)[nH]c12 [Example 48, 2-Diphenylmethyl-4-bromo-5-(2-imidazolin-2-ylamino)Benzimidazole]
- Ki [1, 4]: 0.049 µM

Structure (SMILES): Brc1cc2nc[nH]c2c(Br)c1NC1=NCCN1 [Example 50, 4,6-Dibromo-5-(2-imidazolin-2-ylamino)Benzimidazole]
- Ki [1, 4]: 0.166 µM

Structure (SMILES): Clc1cc(NC2=NCCN2)cc2[nH]cnc12 [Example 53, 7-Chloro-5-(2-imidazolin-2-ylamino)Benzimidazole]
- Ki [1, 4]: 1.91 µM

Structure (SMILES): CCCCc1cc(NC2=NCCN2)cc2[nH]cnc12 [Example 56, 7-Butyl-5-(2-imidazolin-2-ylamino)Benzimidazole]
- Ki [1, 4]: 5.13 µM

Structure (SMILES): Clc1cc(NC2=NCCN2)c(Br)c2[nH]cnc12 [Example 60, 4-Bromo-7-chloro-5-(2-imidazolin-2-ylamino)Benzimidazole]
- Ki [1, 4]: 0.316 µM

From patent US6403626B1, “Benzimidazole derivatives” (Synaptic Pharmaceutical Corporation, priority 1994, dated 2002)
